Test results as given in patent US20100063006A1, “COMPOSITIONS AND METHODS TO REDUCE FAT AND RETRACT SKIN” (American Network of Lipolysis, LLC, priority 2006, published 2010).
Structures can show the parent of a compound that is named as a salt.

Key:
[1] = tested on: cultured human adipocytes; experiment: In vitro lipolysis assays (basal lipolysis rate, triglyceride detection) in cultured human adipocytes; type: cell-based; details: adipocytes incubated 12-14 hours in test composition; FIG. 8
Protocol: Lipolysis induced in cultured human adipocytes by certain embodiments of the inventive injectable compositions for fat reduction and their constituent components was assayed in vitro under controlled conditions.
Cells utilized for the in vitro assays were obtained from five different dermolipectomy specimens. Preadipocytes were cultured in differentiation media over 14 days to produce adipocytes incubated between 12-14 hours in each of 12 test solutions. Each of the cell lines incubated in each of the 12 test solutions were split and introduced into four in vitro assays.
Cell lines were incubated in each of the following compositions: • 1. Phosphatidylcholine 25.6 milligrams per milliliter (mg/mL)/Deoxycholate 24.8 mg/mL, Benzyl Alcohol 25.6 mg/mL, ISUPREL 8 mg/mL, and Ropivacaine 5 mg/mL. • 2. Phosphatidylcholine 24.0 mg/mL/Deoxycholate 19.8 mg/mL, Benzyl Alcohol 25.6 mg/mL, ISUPREL 8 mg/mL, and Ropivacaine 5 mg/mL. • 3. Phosphatidylcholine 50.0 mg/mL/Deoxycholate 42.0 mg/mL. • 4. Deoxycholate 10.0 mg/mL. • 5. Phosphatidylcholine 45.0 mg/mL/Deoxycholate 42.0 mg/mL. • 6. Phosphatidylcholine 53.0 mg/mL/Deoxycholate 42.0 mg/mL. • 7. Phosphatidylcholine 50 mg/mL in mineral oil. • 8. Deoxycholate 24.8 mg/mL. • 9. Benzyl alcohol 25.6 mg/mL. • 10. ISUPREL 8.0 mg/mL. • 11. Ropivacaine 5.0 mg/mL. • 12. Vitamin B complex and pentoxyffline • 13. Control--Saline Solution. […]
B. Basal Lipolysis Rate. Free lipid in collected supernatant was quantified using a Lipolyis assay available from Zan-Bio, Catalog No. LIP-1 to measure released glycerol. […] The quinoneimine dye has an absorbance maximum at 540 nanometers. The increase in absorbance at 540 nanometers is directly proportionate to glycerol concentration in the supernatant.
D. Triglyceride Detection. The amount of triglyceride was quantified by measurement of glycerol released by cell lysis into the supernatant utilizing a triglyceride assay kit available from Zen-Bio, Catalog No. TG-1-NC. There is a molar equivalent of triglyceride for each mole of glycerol detected.

[2] = nausea, vomiting, diarrhea, flushing, sweating, bradycardia; cited from earlier work

| Compound | lipolytic action (free lipids) compared with the saline control [1] | total administered amount of PC above which cholinergic side effects occur [2] |
| --- | --- | --- |
| CC(C)NCC(O)c1ccc(O)c(O)c1 (stereo not shown) [Test composition no. 10, isoproterenol hydrochloride] | do not appear to have lipolytic action greater than the control |  |
| OCc1ccccc1 [Test composition no. 9, Benzyl alcohol] | do not appear to have lipolytic action greater than the control |  |
| phosphatidylcholine [PC] |  | exceeds 2000 mg per treatment |
| CCCN1CCCC[C@H]1C(=O)Nc1c(C)cccc1C [Test composition no. 11, Ropivacaine] | do not appear to have lipolytic action greater than the control |  |
